Test results as given in patent publication US10570168B2, “2′ and/or 5′ amino-acid ester phosphoramidate 3′-deoxy adenosine derivatives as anti- cancer compounds” (NuCana plc, priority 2014, dated 2020).

What was measured:
Assay type in all cases: cell-based
THP-1 = assay: Solid tumour and haematological malignancy assay (CellTiterGlo); conditions: Homo sapiens, THP-1, 72 h; for IC50: read-out: IC50 (absolute IC50)
In short: (§1)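 Cells were exposed to compound for 72 hr under standard growth conditions, and viability was then read by CellTiterGlo luminescence. Treatment used a 9-point, 3.16-fold titration in duplicate, with a lowest final concentration of 19.9 nM and 0.5% final DMSO.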

SW620 = assay: as above; conditions: Homo sapiens, SW-620, 72 h; for IC50: read-out: IC50 (absolute IC50)
In short: as §1

MV4-11 = assay: as above; conditions: Homo sapiens, MV4-11, 72 h; for IC50: read-out: IC50 (absolute IC50)
In short: as §1

BxPC-3 = assay: as above; conditions: Homo sapiens, BXPC-3, 72 h, read-out: IC50 (absolute IC50)
In short: as §1

MOLT-4 [1] = assay: as above; conditions: Homo sapiens, MOLT-4, 72 h, read-out: IC50 (absolute IC50)
In short: as §1

HepG2 [2] = assay: as above; conditions: Homo sapiens, HepG2, 72 h, read-out: IC50 (absolute IC50)
In short: (§2)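 Using duplicate wells at 0.5% final DMSO, compound effect on viability is determined by ATP-based CellTiterGlo luminescence following a 3-day incubation at 37° C.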

K562 [3] = assay: as above; conditions: Homo sapiens, K562, 72 h; for IC50: read-out: IC50 (absolute IC50)
In short: as §2

HL-60 [4] = assay: as above; conditions: Homo sapiens, HL-60, 72 h, read-out: IC50 (absolute IC50)
In short: as §2

MCF7 = assay: as above; conditions: Homo sapiens, MCF7, 72 h, read-out: IC50 (absolute IC50)
In short: as §2

KG-1 [5] = assay: as above; conditions: Homo sapiens, KG-1, 72 h; for IC50: read-out: IC50 (absolute IC50)
In short: as §2

HEL92.1.7 = assay: as above; conditions: Homo sapiens, HEL 92.1.7, 72 h, read-out: IC50 (absolute IC50)
In short: as §2

HT29 = assay: as above; conditions: Homo sapiens, HT-29, 72 h, read-out: IC50 (absolute IC50)
In short: as §2

MiaPaCa-2 = assay: as above; conditions: Homo sapiens, MIA PaCa-2, 72 h, read-out: IC50 (absolute IC50)
In short: as §2

CCRFCEM = assay: as above; conditions: Homo sapiens, CCRF-CEM, 72 h; for IC50: read-out: IC50 (absolute IC50)
In short: as §2

HepG2 [6] = assay: CellTiterGlo viability assay, initial screening; conditions: Homo sapiens, HepG2, 72 h, read-out: IC50 (relative IC50)
In short: (§3)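 CTG viability readout after ~72 hr compound exposure. 9 pts, 3.16-fold serial dilution in DMSO, final down to 19.9 nM; DMSO 0.5% final; duplicates; standard CO2 culture.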

K562 [7] = assay: CellTiterGlo viability assay, initial screening; conditions: Homo sapiens, K562, 72 h, read-out: IC50 (relative IC50)
In short: as §3

HL-60 [8] = assay: CellTiterGlo viability assay, initial screening; conditions: Homo sapiens, HL-60, 72 h, read-out: IC50 (relative IC50)
In short: as §3

KG-1 [9] = assay: CellTiterGlo viability assay, initial screening; conditions: Homo sapiens, KG-1, 72 h, read-out: IC50 (relative IC50)
In short: as §3

MOLT-4 [10] = assay: CellTiterGlo viability assay, initial screening; conditions: Homo sapiens, MOLT-4, 72 h, read-out: IC50 (relative IC50)
In short: as §3

MCF-7 = assay: CellTiterGlo viability assay, initial screening; conditions: Homo sapiens, MCF7, 72 h, read-out: IC50 (relative IC50)
In short: as §3

Row | SMILES | IC50 (THP-1) [µM] | IC50 (SW620) [µM] | IC50 (MV4-11) [µM] | IC50 (BxPC-3) [µM] | IC50 (MOLT-4 [1]) [µM] | IC50 (HepG2 [2]) [µM] | IC50 (K562 [3]) [µM] | IC50 (HL-60 [4]) [µM] | IC50 (MCF7) [µM] | IC50 (KG-1 [5]) [µM] | IC50 (HEL92.1.7) [µM] | IC50 (HT29) [µM] | IC50 (MiaPaCa-2) [µM] | IC50 (CCRFCEM) [µM] | IC50 (HepG2 [6]) [µM] | IC50 (K562 [7]) [µM] | IC50 (HL-60 [8]) [µM] | IC50 (KG-1 [9]) [µM] | IC50 (MOLT-4 [10]) [µM] | IC50 (MCF-7) [µM] | further results
1 | COC(=O)C(C)(C)NP(=O)(OC[C@@H]1C[C@@H](O)[C@H](n2cnc3c(N)ncnc32)O1)Oc1cccc2ccccc12 (stereo partly drawn) [E, Methyl 2-(((((2S,4R,5R)-5-(6-amino-9H-purin-9-yl)-4-hydroxytetrahydrofuran-2-yl)-methoxy)(naphthalen-1-yloxy)phosphoryl)amino)-2-methylpropanoate] | > 100 | 15 to 100 | 5 to 15 | 15 to 100 | 0.1 to 5 | 15 to 100 | 5 to 15 | 5 to 15 | 5 to 15 | 15 to 100 | 15 to 100 | 15 to 100 | 15 to 100 | 0.1 to 5 | 15 to 100 | > 100 | 15 to 100 | 15 to 100 | 5 to 15 | 15 to 100 | Emax (K562 [3]; read-out: MI %): 90%; Emax (KG-1 [5]; read-out: MI %): 100%; Emax (CCRFCEM; read-out: MI %): 100%
2 | CCOC(=O)CCc1ccccc1OP(=O)(N[C@@H](C)C(=O)OCc1ccccc1)OC[C@@H]1C[C@@H](O)[C@H](n2cnc3c(N)ncnc32)O1 (stereo partly drawn) [F, (2S)-benzyl 2-(((((2S,4R,5R)-5-(6-amino-9H-purin-9-yl)-4-hydroxytetrahydrofuran-2-yl)methoxy)(2-(3-ethoxy-3-oxopropyl)phenoxy)phosphoryl)amino)propanoate] | 15 to 100 | 15 to 100 | 0.1 to 5 | 15 to 100 | 0.1 to 5 | 15 to 100 | 0.1 to 5 | 5 to 15 | 5 to 15 | 15 to 100 | 5 to 15 | 15 to 100 | 5 to 15 | 0.1 to 5 | 15 to 100 | 15 to 100 | 15 to 100 | 15 to 100 | 0.1 to 5 | 5 to 15 | Emax (THP-1; read-out: MI %): 100%; Emax (SW620; read-out: MI %): 90%; Emax (MV4-11; read-out: MI %): 100%
